Assay results: publication PMC117120 (BMC Biochemistry, 2002)
Where a chain is given by its changes, count along the chain named. Read-outs that look alike come from different tables or passages of the source.

What was measured:
Y140A mutant 5-HT3ASR = target: T1, Y140A mutant 5-HT3ASR (Mus musculus, UniProt P23979, Y141A); test: Whole cell patch clamp, cells transfected with Y140A cDNA; assay type: cell-based; conditions: 5-HT concentrations of up to 1 mM
T1 sequence (P23979 24-483 isoform P23979-2 Y141A): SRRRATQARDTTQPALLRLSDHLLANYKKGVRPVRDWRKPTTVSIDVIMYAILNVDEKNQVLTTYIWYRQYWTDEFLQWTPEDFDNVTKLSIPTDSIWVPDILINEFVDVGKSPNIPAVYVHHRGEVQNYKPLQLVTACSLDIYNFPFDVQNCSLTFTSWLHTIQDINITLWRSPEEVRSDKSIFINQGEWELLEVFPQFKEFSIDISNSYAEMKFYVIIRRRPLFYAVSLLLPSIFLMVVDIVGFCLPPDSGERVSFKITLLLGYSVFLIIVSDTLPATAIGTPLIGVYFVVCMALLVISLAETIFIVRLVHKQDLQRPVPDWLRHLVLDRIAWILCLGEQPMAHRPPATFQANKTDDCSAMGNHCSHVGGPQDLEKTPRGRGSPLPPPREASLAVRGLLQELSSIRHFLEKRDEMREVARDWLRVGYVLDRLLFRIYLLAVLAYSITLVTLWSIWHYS

Y152A mutant 5-HT3ASR = target: T2, Y152A mutant 5-HT3ASR (Mus musculus, UniProt P23979, Y153A); test: Whole cell patch clamp, tsA201 cells transfected with Y152A cDNA; assay type: cell-based; conditions: for response amplitude: 8 s, representative trace
T2 sequence (P23979 24-483 isoform P23979-2 Y153A): T1 sequence (P23979 24-483 isoform P23979-2 Y141A) with A118Y, Y130A

wt 5-HT3ASR = target: T3, wt 5-HT3ASR (Mus musculus, UniProt P23979); conditions: for response amplitude: 4 s, representative trace
T3 sequence (P23979 24-483 isoform P23979-2 limits assumed): T1 sequence (P23979 24-483 isoform P23979-2 Y141A) with A118Y

Y142A mutant 5-HT3ASR = target: T4, Y142A mutant 5-HT3ASR (Mus musculus, UniProt P23979, Y143A); test: Whole cell patch clamp, cells transfected with Y142A cDNA; assay type: cell-based; conditions: 5-HT concentrations of up to 1 mM
T4 sequence (P23979 24-483 isoform P23979-2 Y143A): T1 sequence (P23979 24-483 isoform P23979-2 Y141A) with A118Y, Y120A

Q: What does the source list for NCCc1c[nH]c2ccc(O)cc12 [5-HT, serotonin]?
A: whole cell response to 5-HT (Y140A mutant 5-HT3ASR): no responses; time for response to plateau (Y152A mutant 5-HT3ASR): several seconds; response amplitude (Y152A mutant 5-HT3ASR; 3.0 μM 5-HT): 0.10 nA; response amplitude (Y152A mutant 5-HT3ASR; 100 μM 5-HT): 0.14 nA; response amplitude (Y152A mutant 5-HT3ASR; 300.0 μM 5-HT): 0.57 nA; response amplitude (Y152A mutant 5-HT3ASR; 1.0 mM 5-HT): 1.0 nA; desensitization (Y152A mutant 5-HT3ASR; during the 8 s perfusion time): no desensitization; desensitization (wt 5-HT3ASR): desensitized rapidly; time to peak response (wt 5-HT3ASR): less than 80 ms; response amplitude (wt 5-HT3ASR; 0.3 μM 5-HT): 0.03 nA; response amplitude (wt 5-HT3ASR; 1.0 μM 5-HT): 0.96 nA; response amplitude (wt 5-HT3ASR; 3.0 μM 5-HT): 2.5 nA; response amplitude (wt 5-HT3ASR; 30.0 μM 5-HT): 4.4 nA; response amplitude (wt 5-HT3ASR; 100.0 μM 5-HT): 3.9 nA; whole cell response to 5-HT (Y142A mutant 5-HT3ASR): no responses
